Columns and labels:
[1] = system: ΦX 174 DNA Plasmid (Form I); assay: Cleavage of ΦX 174 DNA plasmid (form I), compound alone or activated with KHSO5; assay type: biochemical, phage ΦX 174; settings: for S (single-strand breaks per DNA molecule) / form % I / form % II / form % III: DNA 3.5 nM
Text: (§1) The DNA cleavage activity was quantified in terms of number of single-strand breaks per DNA molecule according to the equation […], Io=% form I (supercoiled DNA) in the DNA control, and I=% form I in the experiment (see Bernadou et al, Biochemistry, 28: 7268-7275, (1989)). This assay is very sensitive and is able to detect very low levels of DNA activity. S values less than S=1.0 are indicative of very low DNA cleavage activity when the compounds are at a concentration of equal to or less than 1000 nM and KHSO5 is present at a concentration of equal to or less than 100 μM.
(§2) ΦX 174 DNA digestion conditions for standard experiments were as follows: commercially available DNA was diluted to 50 μg/mL in phosphate buffer (10 mM, pH 7.5). The reaction involved 5 μL of ΦX 174 DNA (50 μg/mL, 74.8 μM in base pairs), 5 μL of 40 mM phosphate buffer, pH 7.5 with 400 mM NaCl, 5 μL of metalloporphyrin in double-distilled water or 5 μL of iron-bleomycin complex in double-distilled water, and 5 μL of KHSO5 or 5 μL of H2O2 or 5 μL of ascorbate in double-distilled water. Preincubation of DNA and metalloporphyrins or iron-bleomycin complex was performed for about 15 min. The digestion time in the presence of KHSO5 was 10 min, of H2O2 was 30 min and of ascorbate was 30 min at 20° C. DNA cleavage was monitored by agarose gel electrophoresis. Reactions with KHSO5 were first quenched by 2 μL of 100 mM Hepes buffer, pH 8. In all cases, reactions were quenched by 5 μL of a stopping reagent. The stopping reagent consisted of 250 mM Hepes buffer, pH 7.4, containing 75% glycerol and 0.05% bromophenol blue. Reaction mixtures were then run in 0.8% agarose slab horizontal gel containing ethidium bromide […], at constant current (25 mA for 15h), in 89 mM Tris-borate buffer and 2.5 mM EDTA pH 8.3. Bands were located by WV light (254 nm), photographed, and quantitated by microdensitometry. The correction coefficient 1.47±0.30 was used for decreased stainability of form I DNA vs form II DNA and form III DNA.

[2] = system: ΦX 174 DNA Plasmid (Form I); assay: Cleavage of ΦX 174 DNA plasmid (form I), activation with H2O2; assay type: biochemical, phage ΦX 174; settings: for S (single-strand breaks per DNA molecule) / form % I / form % II / form % III: DNA 3.5 nM, H2O2 1 mM
Text: as §1, §2

[3] = Catalase activity, hydrogen peroxide consumed at 20 minutes; assay type: biochemical; settings: over 20 minutes; 10 μM compound, 100 μM hydrogen peroxide, 40 mM sodium phosphate pH 7.4
Description: (§3) Catalase activity was measured by incubating the sample compound with hydrogen peroxide and determining the amount of hydrogen peroxide remaining after a period of time using a colorimetric peroxidase-coupled assay method. 10 μM sample compound and 100 μM hydrogen peroxide in 40 mM sodium phosphate pH 7.4 were incubated together at ambient temperature in a multi-well plate. After the desired reaction period had elapsed, 20 μl of peroxidase/ABTS reagent was added (peroxidase/ABTS reagent contained 100 μl of 50 mM Na phosphate, pH 7.4, 1 mg horseradish peroxidase (1310 U/mg) and […]). After five minutes, absorbance at 750 nm was determined. The amount of hydrogen peroxide remaining was calculated based on a standard curve. To compare rates of catalase reaction, the amount of hydrogen peroxide consumed at 20 minutes was determined (See table III). It was also of interest to determine the total number of turnovers completed by the compound before inactivation by hydrogen peroxide. This was assayed under similar conditions, except that 15.8 μM compound was combined with 1582 μM hydrogen peroxide in 5 mM Na phosphate, pH 7.4. Reactions were allowed to proceed to completion and then the amount of hydrogen peroxide remaining was determined as described above. Results showing […] in the turnover assay (nmoles hydrogen peroxide per nmole compound) are also shown in Table III.

[4] = Catalase turnover assay, total hydrogen peroxide consumed before inactivation; assay type: biochemical; settings: to completion, 15.8 μM compound, 1582 μM hydrogen peroxide, 5 mM Na phosphate pH 7.4
Description: as §3

[5] = Peroxidase activity, ABTS oxidation; assay type: biochemical; settings: 10 μM compound, 200 μM hydrogen peroxide, 500 μM ABTS, pH 8.1, 740 nm
Description: Peroxidase activity was measured by incubating 10 μM compound, 200 μM hydrogen peroxide and 500 μM ABTS in 50 mM sodium phosphate, pH 8.1. The rate of ABTS oxidation was monitored at 740 nm and initial rates (change in absorbance per min.) determined.

[6] = Superoxide dismutase activity, xanthine-xanthine oxidase / cytochrome C; assay type: biochemical; settings: reciprocal of IC50; xanthine 60 μM, xanthine oxidase 0.009 units/ml, cytochrome C 27.8 μM
Description: Superoxide Dismutase Activity was measured by incubating the compound with a superoxide generating system (Xanthine, 60 μM-Xanthine Oxidase, 0.009 units/ml) and a detector molecule (Cytochrome C, 27.8 μM). Upon reacting with a molecule of superoxide, Cytochrome C undergoes a spectrum-shift which can be detected as an increase in absorbance at 550 nm. In this assay procedure, the reactant concentrations were adjusted to give a reaction rate close to 0.1 AU/min. at 2-3 min. after the reaction began. Addition of compounds with Superoxide Dismutase activity reduce the rate of absorbance change. Compounds were assayed at several concentrations (typically at 0, 2, 4, and 8 μM) and the resulting rates were graphed and fitted to a linear regression formula. The linear regression formula was then solved to determine the concentration of compound required to reduce the reaction rate to 50% of the rate without compound present (IC50).

SMILES: CC[NH+](CC)CCNS(=O)(=O)c1c(C)cc(C)c(C2=C3C=CC4=[N+]3[Fe-]35[n]6c2ccc6C(c2c(C)cc(C)c(S(=O)(=O)NCC[NH+](CC)CC)c2C)=C2C=CC(=[N+]23)C(c2c(C)cc(C)c(S(=O)(=O)NCC[NH+](CC)CC)c2C)=c2ccc([n]25)=C4c2c(C)cc(C)c(S(=O)(=O)NCC[NH+](CC)CC)c2C)c1C.[Cl-].[Cl-].[Cl-].[Cl-].[Cl-] [Structural Formula V, meso-tetrakis[3-(N-(2-(N,N-diethylammonio)ethyl)aminosulfonyl)-2,4,6-trimethylphenyl]porphyrinato diaqua-iron (III) pentachloride]
- S (single-strand breaks per DNA molecule) ([1]; compound 10 nM, KHSO5 100 μM): 0.01 SSBs
- form % I ([1]; compound 10 nM, KHSO5 100 μM): 91%
- form % II ([1]; compound 10 nM, KHSO5 100 μM): 9%
- form % III ([1]; compound 10 nM, KHSO5 100 μM): 0%
- S (single-strand breaks per DNA molecule) ([1]; compound 10 nM, without KHSO5): 0 SSBs
- form % I ([1]; compound 10 nM, without KHSO5): 92%
- form % II ([1]; compound 10 nM, without KHSO5): 8%
- form % III ([1]; compound 10 nM, without KHSO5): 0%
- S (single-strand breaks per DNA molecule) ([1]; compound 100 nM, KHSO5 100 μM): 0.03 SSBs
- form % I ([1]; compound 100 nM, KHSO5 100 μM): 90%
- form % II ([1]; compound 100 nM, KHSO5 100 μM): 10%
- form % III ([1]; compound 100 nM, KHSO5 100 μM): 0%
- S (single-strand breaks per DNA molecule) ([1]; compound 100 nM, without KHSO5): 0 SSBs
- form % I ([1]; compound 100 nM, without KHSO5): 92%
- form % II ([1]; compound 100 nM, without KHSO5): 8%
- form % III ([1]; compound 100 nM, without KHSO5): 0%
- S (single-strand breaks per DNA molecule) ([1]; compound 1 μM, KHSO5 100 μM): 0.07 SSBs
- form % I ([1]; compound 1 μM, KHSO5 100 μM): 87%
- form % II ([1]; compound 1 μM, KHSO5 100 μM): 13%
- form % III ([1]; compound 1 μM, KHSO5 100 μM): 0%
- S (single-strand breaks per DNA molecule) ([1]; compound 1 μM, without KHSO5): 0.07 SSBs
- form % I ([1]; compound 1 μM, without KHSO5): 87%
- form % II ([1]; compound 1 μM, without KHSO5): 13%
- form % III ([1]; compound 1 μM, without KHSO5): 0%
- DNA cleavage activity in oxidative medium ([1]; oxidative medium (KHSO5)): do not exhibit any significant DNA cleavage activity
- S (single-strand breaks per DNA molecule) ([2]; compound 10 nM): 0.01 SSBs
- form % I ([2]; compound 10 nM): 94%
- form % II ([2]; compound 10 nM): 6%
- form % III ([2]; compound 10 nM): 0%
- S (single-strand breaks per DNA molecule) ([2]; compound 100 nM): 0 SSBs
- form % I ([2]; compound 100 nM): 95%
- form % II ([2]; compound 100 nM): 5%
- form % III ([2]; compound 100 nM): 0%
- S (single-strand breaks per DNA molecule) ([2]; compound 1 μM): 0.16 SSBs
- form % I ([2]; compound 1 μM): 84%
- form % II ([2]; compound 1 μM): 16%
- form % III ([2]; compound 1 μM): 0%
- DNA cleavage activity in H2O2 medium ([2]; H2O2 medium): does not exhibit significant DNA cleavage activity
- CATALASE* Rate at 20 mins. [3]: 6.4 nmole H2O2/nmole Structural Formula compound
- CATALASE** H2O2 Consumption [4]: 36.1 nmole H2O2/nmole Structural Formula compound
- PEROXIDASE Initial Rate [5]: 0.0443 change in absorbance per min.
- Cyt C SOD 1/(IC50, μM) [6]: 0.067 µM⁻¹

Source: patent US6403788B1, “Non-genotoxic metalloporphyrins as synthetic catalytic scavengers of reactive oxygen species” (Eukarion, Inc., priority 2000, dated 2002)
